From PubChem BioAssay AID2060900 (Molecular Pharmacology Branch, DTP, NCI, 2025)

System: 521955-158-R2-J5-PDC complex spheroids, viability
Assay: Anticancer human tumor 521955-158-R2-J5-PDC patient-derived pancreatic carcinoma cell line growth inhibition [RAS]
Conditions: for viability, T/C: stronger effect = lower value
Outline: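 Tumour cells grown as complex spheroids with HUVEC endothelial cells and mesenchymal stem cells, treated with RAS pathway inhibitor combinations. Each agent spans half-log steps from near clinical Cmax, or 10 microM where Cmax is unknown.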
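Also: compound exposure lasted seven days before the viability read.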
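For viability, T/C in this document: spheroids also contain HUVEC endothelial cells and mesenchymal stem cells as stroma.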

## NC1c2ccccc2OC12CCN(c1cnc3c(N4CCCc5ncccc54)n[nH]c3n1)CC2 (centres undefined) + CCn1c(-c2cc(N3CCN(C)CC3)cnc2C(C)OC)c2c3cc(ccc31)-c1csc(n1)CC(NC(=O)C1CC1C)C(=O)N1CCCC(N1)C(=O)OCC(C)(C)C2
Curve of first compound, second compound 0.000949 µM
  IC50: < 31.6 nM
Curve of first compound, second compound 0.003 µM
  IC50: < 31.6 nM
Curve of first compound, second compound 0.00949 µM
  IC50: < 31.6 nM
Curve of first compound, second compound 0.03 µM
  IC50: < 31.6 nM
Curve of first compound, second compound 0.0949 µM
  IC50: < 31.6 nM
Curve of first compound, second compound 0.3 µM
  IC50: < 31.6 nM
Second compound 0.000949 µM, first compound 0.0316 µM
  viability, T/C: 36.8%
Second compound 0.000949 µM, first compound 0.1 µM
  viability, T/C: 33.9%
Second compound 0.000949 µM, first compound 0.316 µM
  viability, T/C: 36.1%
Second compound 0.000949 µM, first compound 1 µM
  viability, T/C: 20.8%
Second compound 0.000949 µM, first compound 3.16 µM
  viability, T/C: 18.5%
Second compound 0.000949 µM, first compound 10 µM
  viability, T/C: 13.4%
Second compound 0.003 µM, first compound 0.0316 µM
  viability, T/C: 35.4%
Second compound 0.003 µM, first compound 0.1 µM
  viability, T/C: 28.6%
Second compound 0.003 µM, first compound 0.316 µM
  viability, T/C: 21.4%
Second compound 0.003 µM, first compound 1 µM
  viability, T/C: 19.2%
Second compound 0.003 µM, first compound 3.16 µM
  viability, T/C: 13.3%
Second compound 0.003 µM, first compound 10 µM
  viability, T/C: 5.75%
Second compound 0.00949 µM, first compound 0.0316 µM
  viability, T/C: 24.2%
Second compound 0.00949 µM, first compound 0.1 µM
  viability, T/C: 16%
Second compound 0.00949 µM, first compound 0.316 µM
  viability, T/C: 14.4%
Second compound 0.00949 µM, first compound 1 µM
  viability, T/C: 11.2%
Second compound 0.00949 µM, first compound 3.16 µM
  viability, T/C: 6.08%
Second compound 0.00949 µM, first compound 10 µM
  viability, T/C: 3.95%
Second compound 0.03 µM, first compound 0.0316 µM
  viability, T/C: 10.4%
Second compound 0.03 µM, first compound 0.1 µM
  viability, T/C: 8.87%
Second compound 0.03 µM, first compound 0.316 µM
  viability, T/C: 10.9%
Second compound 0.03 µM, first compound 1 µM
  viability, T/C: 8.91%
Second compound 0.03 µM, first compound 3.16 µM
  viability, T/C: 7.26%
Second compound 0.03 µM, first compound 10 µM
  viability, T/C: 4.07%
Second compound 0.0949 µM, first compound 0.0316 µM
  viability, T/C: 11%
Second compound 0.0949 µM, first compound 0.1 µM
  viability, T/C: 9.54%
Second compound 0.0949 µM, first compound 0.316 µM
  viability, T/C: 11.1%
Second compound 0.0949 µM, first compound 1 µM
  viability, T/C: 5.55%
Second compound 0.0949 µM, first compound 3.16 µM
  viability, T/C: 8%
Second compound 0.0949 µM, first compound 10 µM
  viability, T/C: 3.91%
Second compound 0.3 µM, first compound 0.0316 µM
  viability, T/C: 10.1%
Second compound 0.3 µM, first compound 0.1 µM
  viability, T/C: 7.36%
Second compound 0.3 µM, first compound 0.316 µM
  viability, T/C: 9.18%
Second compound 0.3 µM, first compound 1 µM
  viability, T/C: 8.17%
Second compound 0.3 µM, first compound 3.16 µM
  viability, T/C: 9.16%
Second compound 0.3 µM, first compound 10 µM
  viability, T/C: 3.2%

## CC(Nc1ccc2c(c1)OCCn1cc(N3C(=O)OCC3C(F)F)nc1-2)C(N)=O (centres undefined) + C=CC(=O)N1CCN(c2nc(OCC3CCCN3C)nc3c(F)c(-c4nc(N)cc(C)c4C(F)(F)F)c(Cl)cc23)C(C)C1
Curve of first compound, second compound 0.00316 µM
  IC50: 1320 nM
Curve of first compound, second compound 0.01 µM
  IC50: 419 nM
Curve of first compound, second compound 0.0316 µM
  IC50: 634 nM
Curve of first compound, second compound 0.1 µM
  IC50: 833 nM
Curve of first compound, second compound 0.316 µM
  IC50: 261 nM
Curve of first compound, second compound 1 µM
  IC50: 180 nM
Second compound 0.00316 µM, first compound 0.0316 µM
  viability, T/C: 66.7%
Second compound 0.00316 µM, first compound 0.1 µM
  viability, T/C: 70.9%
Second compound 0.00316 µM, first compound 0.316 µM
  viability, T/C: 43%
Second compound 0.00316 µM, first compound 1 µM
  viability, T/C: 64.7%
Second compound 0.00316 µM, first compound 3.16 µM
  viability, T/C: 38.4%
Second compound 0.00316 µM, first compound 10 µM
  viability, T/C: 19.8%
Second compound 0.01 µM, first compound 0.0316 µM
  viability, T/C: 64.1%
Second compound 0.01 µM, first compound 0.1 µM
  viability, T/C: 58.3%
Second compound 0.01 µM, first compound 0.316 µM
  viability, T/C: 43.5%
Second compound 0.01 µM, first compound 1 µM
  viability, T/C: 52%
Second compound 0.01 µM, first compound 3.16 µM
  viability, T/C: 35.5%
Second compound 0.01 µM, first compound 10 µM
  viability, T/C: 22.9%
Second compound 0.0316 µM, first compound 0.0316 µM
  viability, T/C: 56.9%
Second compound 0.0316 µM, first compound 0.1 µM
  viability, T/C: 71.3%
Second compound 0.0316 µM, first compound 0.316 µM
  viability, T/C: 43.5%
Second compound 0.0316 µM, first compound 1 µM
  viability, T/C: 53.3%
Second compound 0.0316 µM, first compound 3.16 µM
  viability, T/C: 30.4%
Second compound 0.0316 µM, first compound 10 µM
  viability, T/C: 19.7%
Second compound 0.1 µM, first compound 0.0316 µM
  viability, T/C: 67.3%
Second compound 0.1 µM, first compound 0.1 µM
  viability, T/C: 54.8%
Second compound 0.1 µM, first compound 0.316 µM
  viability, T/C: 67.6%
Second compound 0.1 µM, first compound 1 µM
  viability, T/C: 45.6%
Second compound 0.1 µM, first compound 3.16 µM
  viability, T/C: 28.8%
Second compound 0.1 µM, first compound 10 µM
  viability, T/C: 19.4%
Second compound 0.316 µM, first compound 0.0316 µM
  viability, T/C: 72.4%
Second compound 0.316 µM, first compound 0.1 µM
  viability, T/C: 90.1%
Second compound 0.316 µM, first compound 0.316 µM
  viability, T/C: 43.8%
Second compound 0.316 µM, first compound 1 µM
  viability, T/C: 42.7%
Second compound 0.316 µM, first compound 3.16 µM
  viability, T/C: 33.3%
Second compound 0.316 µM, first compound 10 µM
  viability, T/C: 22.5%
Second compound 1 µM, first compound 0.0316 µM
  viability, T/C: 124%
Second compound 1 µM, first compound 0.1 µM
  viability, T/C: 53.4%
Second compound 1 µM, first compound 0.316 µM
  viability, T/C: 48.9%
Second compound 1 µM, first compound 1 µM
  viability, T/C: 35.4%
Second compound 1 µM, first compound 3.16 µM
  viability, T/C: 33%
Second compound 1 µM, first compound 10 µM
  viability, T/C: 19.8%

## CC(Nc1ccc2c(c1)OCCn1cc(N3C(=O)OCC3C(F)F)nc1-2)C(N)=O (centres undefined)
Compound 0.1 µM
  viability, T/C: 57.5% [middle of 4 runs]
Compound 0.316 µM
  viability, T/C: 41.1% [middle of 4 runs]
Compound 1 µM
  viability, T/C: 31% [middle of 4 runs]
Compound 10 µM
  viability, T/C: 23.5% [middle of 4 runs]
Curve of compound
  IC50: 136 nM [middle of 4 runs]
